Assays:
cell lines employed = experiment: Toxicity of deacetylase inhibitors (lift-off, trypan-blue dye exclusion, laddering, PI/annexin-V flow cytometry); assay type: cell-based; settings: TSA from 5 nM to 250 nM for 6 to 72 hr
Procedure: Two representative DAIs, TSA and NaBu were used for this illustration. […] In some experiments, 100 U/ml γ-IFN was added with and without the deacetylase inhibitor.

[1] = test system: MC, Colon 26 and J558 cells; experiment: Apoptosis by flow cytometry (sub-G0 PI staining, annexin-V); assay type: cell-based; settings: low concentrations of TSA employed in FIG. 8
Procedure: (§1) To determine the effect of TSA on cell surface protein expression, the J558 cell line was subjected to flow cytometric analyses as follows. Flow cytometric analyses were conducted by standard methods using cells fixed with 1.0% paraformaldehyde and analyzed on the FACScan (Becton Dickinson). Cell cycle analyses were carried out by flow cytometry with PI staining of genomic DNA. Cells were fixed and permeablized in methanol, treated with RNaseA and analyzed for DNA content by determination of FL3-area on the FACScan. The FL3-area data were analyzed with the ModFit software for determination of the percent cells in each phase of the cell cycle. In some cases, fluorescein isothiocyanate (FITC)-conjugated antibody staining was conducted prior to PI treatment and surface staining was analyzed as a function of cell cycle phase. Apoptosis was analyzed by staining with annexin-V directly conjugated with either FITC or RPE and by sub-G0 analysis of DNA staining. […] Isotype controls were analyzed and, in each case, fell on or below the levels shown for control cells. […] Since all cells were positive for MHC class I expression, the number under the histogram represents -fold change of expression calculated from the mean channel-shift after treatment relative to untreated cells. […]

[2] = test system: MC, Colon 26 and J558 cells; experiment: Cell cycle analysis by DNA staining and flow cytometry; assay type: cell-based; settings: TSA concentrations used in FIG. 8 (50 nM 48 hours MC and Colon 26; 25 nM 24 hours J558); data not shown
Procedure: as §1

MHC class I = experiment: Cell surface MHC class I by flow cytometry on SK-N-MC; assay type: cell-based, human; settings: 50 nM TSA 48 hours
J558 cells = experiment: Other cell surface markers by flow cytometry on J558 cells; assay type: cell-based, mouse; settings: TSA treatment
Procedure: as §1

CD40 = experiment: Cell surface CD40 by flow cytometry on SK-N-MC; assay type: cell-based, human; settings: 50 nM TSA 48 hours
[3] = test system: interferon regulatory factor (IRF-1) and guanylate binding protein (GBP) mRNA; experiment: mRNA of IFNγ inducible genes IRF-1 and GBP in SK-N-MC; assay type: cell-based, human; settings: IFNγ treatment, data not shown
[4] = test system: IRF-1, GBP and MHC class I mRNA; experiment: mRNA of IRF-1, GBP and MHC class I in J558; assay type: cell-based, mouse; settings: IFNγ, data not shown
Procedure: To determine if the effect of DAIs on MHC class II was manifested in other tumors and in different species, the effect of TSA was tested on four commonly used mouse tumor models: the SaI fibrosarcoma, the Colon 26 adenocarcinoma, the J558 plasmacytoma and the P815 mastocytoma. TSA induced class II in all four mouse tumors examined, while the effects of IFNγ were variable (FIG. 4). Data presented for each cell line represents optimal incubation time and concentration of TSA and is compared with 100 U/ml of IFNγ at the same time point. Numbers over bars represents fold changes. […] Colon 26 and J558 that differed strikingly in their reactivity to IFNγ were selected for further evaluation. RT-PCR and real time PCR was used to examine induction of CIITA and IAα by TSA and IFNγ. A20, a constitutively positive B cell line was used as a positive control. The results are shown in FIGS. 5A-D. The numbers over bars represent fold changes. […] Since the classical IFNγ inducible genes IRF-1 and GBP as well as MHC class I mRNA were not induced by IFNγ in J558 (data not shown), this cell line may have a signaling defect in the IFNγ pathway. Unexpectedly however, and unlike either the MC or Colon 26 cells, TSA induced both CIITA (102-fold) and Iα (537-fold) in J558 as shown in FIGS. 5B and 5D.

Molecule	toxicity (cell lines employed)	apoptosis [1]	effect on the cell cycle [2]	MHC class I expression on cell surface (MHC class I)	expressed markers (CD44, CD54, CD80, CD86, CD119) (J558 cells)	levels of non-expressed antigens (CD25, B7 integrin, CD40L, H2K^k, IA^k) (J558 cells)	expression of CD40 on cell surface (CD40)	mRNA for IRF-1 and GBP [3]	IRF-1, GBP and MHC class I mRNA induction [4]
CC(/C=C/C(=O)NO)=C\[C@@H](C)C(=O)c1ccc(N(C)C)cc1 [TSA, Trichostatin A]	non toxic	could not be detected	did not significantly alter	enhanced	not altered	not elicited	induced expression		
IFNγ: gamma-interferon, cytokine used as comparator at 100 U/ml								enhanced	not induced
